These are literature values, as cited in US7906537B2, “Substituted p-diaminobenzene derivatives” (priority 2003, dated 2011).

The subject of series [1] is K(+) current in neuronal cells.
For another series, the system named is amygdala kindling model. The settings on record: in vivo.
Series [2] has as its system animal models of neuropathic pain. The settings on record: in vivo.
For series [3], the system named is electrically induced seizures, seizures induced chemically by pentylenetetrazole, picrotoxin and NMDA, DBA/2 mouse. The settings on record: after oral and intraperitoneal administration in rats and mice.
The test system of series [4] is kainic acid-induced status epilepticus. Conditions: following kainic acid-induced status epilepticus in the rat.
A further series deals with epileptic patients. Conditions: clinical trials.
Series [5] has as its system animal models of anxiety-like behaviour. Conditions: in vivo.
A further series concerns hippocampal kindling. The settings on record: rat.
Series [6] deals with animal models of ethanol withdrawal syndrome. Conditions: in vivo.

Regarding `CCOC(=O)Nc1ccc(NCc2ccc(F)cc2)cc1N` [Retigabine, N-(2-amino-4-(4-fluorobenzylamino)-phenyl)carbamic acid ethyl ester], in series [1], the “activation of K(+) current” value is recorded as “activate a K(+) current”. For the same compound, the “activity in the amygdala kindling model of complex partial seizures” value in the series with amygdala kindling model is given as “active”. Also, the “effect in animal models of neuropathic pain” value in series [2] is “beneficial”. The “activity in a range of anticonvulsant tests” value in series [3] is on record as “active”. For the same compound, the “limbic neurodegeneration and expression of markers of apoptosis” value in series [4] is “prevent limbic neurodegeneration and the expression of markers of apoptosis”. For the same compound, in the series with epileptic patients, the “incidence of seizures in epileptic patients” value is reported as “effectiveness in reducing the incidence of seizures”. In [5], the “activity in animal models of anxiety-like behaviour” value is on record as “active”. The “progression of hippocampal kindling” value with hippocampal kindling is “delay the progression of hippocampal kindling”.

Regarding `NCC1(CC(=O)O)CCCCC1` [gabapentin], the “effect in animal models of ethanol withdrawal syndrome” value in series [6] is reported as “very effective”.
